Entries after “also recorded” stand apart in the source; their conditions may differ.
Legend:
[1] = system: human blood vessel organoids; experiment: Diabetic basement membrane thickening (Collagen IV) in human blood vessel organoids cultured in diabetic medium; type: cell-based; details: for increase of Col IV+ basement membrane under diabetic conditions: 75 mM Glucose, 1 ng/mL IL-6, 1 ng/mL TNF-α, 10 μM RO4929097, 1 μM Dehydroxy-LY411575, 1 μM LY411575; for high glucose/TNFα/IL6-induced thickening of the basal blood vessel membrane (Collagen IV): diabetic medium 75 mM Glucose, 1 ng/mL TNFα, 1 ng/mL IL-6, drug doses (DAPT 25 μM); for diabetic basement membrane thickening (Col IV) on blocking Notch pathway members: 2 weeks diabetic media (hyperglycemia + IL-6 + TNF-a), blocking antibodies or non-crosslinked recombinant proteins
Protocol: Modeling diabetic vasculopathy in human vascular organoids. Established endothelial networks in vascular organoids were cultured in a non-diabetic control medium (17 mM Glucose) or diabetic medium (75 mM Glucose, in the presence of absence of human TNFα (1 ng/mL, Invitrogen PHC3011) and/or IL-6 (1 ng/mL, Peprotech 200-06)) for up to 3 weeks before the basement membrane was investigated by Collagen type IV immunostaining and electron microscopy. D-Mannitol was used in non-diabetic media to control for hyperosmotic effects. For basement membrane quantifications, acquired z-stacks were analysed and the thickness of ColIV coats around luminal structures were measured using ImageJ software. For drug treatment, organoids were exposed to diabetic medium (75 mM Glucose, 1 ng/mL human TNFα, and 1 ng/mL IL-6) in the presence or absence of the following drugs: 2,4-Thiazolidinedione (5 mM, Abcam ab144811), Metformin (5 mM, Abcam ab120847), Acarbose (80 μg/mL, Sigma A8980), […] (100 μM, Sigma N3538), Diphenyleneiodonium (10 μM), Glimepiride (30 nM, Sigma G2295), Pioglitazone (10 μM, Sigma E6910). The following small molecule inhibitors were used: N-Acetyl-L-cysteine (500 μM, Sigma, A7250), CHIR99021 (10 μM, Tocris 4423), Goe6976 (100nM, Merck U51365250), MK2206 (10 μM, EubioS1078), QNZ (10 μM, Eubio […]), 5B203580 (10 μM, Eubio […]), SCH772984 (500 nM, Eubio […], Calbiochem 688000), DAPT (25 μM, Sigma D5942), 5B431542 (10 μM, Abcam ab120163).

[2] = system: human vascular organoid transplants; experiment: Vessel leakage (FITC-Dextran extravasation) of human vascular organoid transplants in diabetic STZ mice; type: in vivo, mouse; details: diabetic STZ NSG mice, DAPT 5 mg/kg
Protocol: (§1) Modeling diabetic vasculopathy in human vascular organoids in vivo. Immunodeficient NSG mice carrying human vascular organoid transplants were daily i.p. injected with 40 mg/kg Streptozotocin (STZ) (Merck, 572201) for 5 consecutive days. Every day, STZ was freshly dissolved in citrate buffer (pH4.6) and immediately used. Diabetes was confirmed (blood glucose >300 mg/dL) by measuring non-fasting glucose using the OneTouch UltraEasy system (Lifetouch, AW 06637502C). DAPT (Selleckchem 52215) was dissolved in ethanol and injected with 90% cornoil for 5 consecutive days at 5 mg/kg with 2 days of no treatment per week. Anti-Notch3 blocking antibodies (R&D AF1559) were injected 3 time/week at lmg/kg. For quantifying vessel leakage, the FITC-Dextran^+ area was measured and normalized to the area of perfused human blood vessels (hCD31^+) using the FIJI software. This ratio was then further normalized to control non-diabetic mice. Permeability of long-term DAPT treated vessels were measured after 2 days of treatment stop to avoid measuring acute effects of DAPT on vessel permeability.

[3] = system: human vascular organoid transplants; experiment: Human CD31+ blood vessel density of vascular organoid transplants in diabetic STZ mice; type: in vivo, mouse; details: diabetic STZ NSG mice, DAPT 5 mg/kg
Protocol: as §1

[4] = system: human blood vessel organoids; experiment: Diabetic basement membrane thickening (Collagen IV) in human blood vessel organoids cultured in diabetic medium; type: cell-based; details: diabetic cocktail, indicated DAPT doses (FIG. 5)

CC(C)(C(=O)NCC(F)(F)C(F)(F)F)C(=O)N[C@@H]1C(=O)Nc2ccccc2-c2ccccc21 [RO4929097] was tested. Which “increase of Col IV+ basement membrane under diabetic conditions” value (“increase of Col IV+ basement membrane” below) [1] did it give?
Its value is “prevent the increase of basement membrane (Col IV) under diabetic conditions”.

Which “high glucose/TNFα/IL6-induced thickening of the basal blood vessel membrane (Collagen IV)” value (“high glucose/TNFα/IL6-induced thickening” for short) [1] does the source give for C[C@H](NC(=O)Cc1cc(F)cc(F)c1)C(=O)N[C@H](C(=O)OC(C)(C)C)c1ccccc1 [DAPT] here?
Its value is “abrogates thickening of the vascular basement membrane; also recorded: can prevent diabetic vascular basement membrane thickening; also recorded: completely abrogated the expansion of collagen IV and basal membrane thickening; also recorded: nearly completely prevented the thickening of the basal membrane”.

What about the “vessel permeability / leakage (FITC-Dextran extravasation)” value [2] of the same molecule?
Its value is “normalized diabetic vessel permeability; also recorded: excessive blood vessel leakiness was rescued”.

And the “human blood vessel (CD31+) density in transplanted vascular organoids” value [3]?
The value was “restores human vessel density; also recorded: rescued the loss of CD31^+ human blood vessels”.

What about the “dose dependence of prevention of basement membrane thickening (ColIV thickness)” value [4] of the same molecule?
The value was “dose dependent; also recorded: dose-dependent”.

With “D114: non-crosslinked recombinant protein (Notch ligand, Delta-like protein 4) used as blocker” as the molecule, how does the “diabetic basement membrane thickening (Col IV) on blocking Notch pathway members” value [1] read?
The value was “completely blocked basement membrane thickening”.

With CC(C)[C@H]1CC[C@H](C(=O)N[C@H](Cc2ccccc2)C(=O)O)CC1 [nateglindine, Nateglindine] as the molecule, how does the “high glucose/TNFα/IL6-induced thickening” value [1] read?
The value was “none of the medicines that we tested”.

With CN(C)C(=N)N=C(N)N [metformin, Metformin] as the molecule, how does the “high glucose/TNFα/IL6-induced thickening” value [1] read?
Its value is “none of the medicines that we tested”.

Which “high glucose/TNFα/IL6-induced thickening” value [1] does the source give for O=C1CSC(=O)N1 [thiazolidinedione, 2,4-Thiazolidinedione] here?
The value was “none of the medicines that we tested”.

Which “high glucose/TNFα/IL6-induced thickening” value [1] does the source give for CCC1=C(C)CN(C(=O)NCCc2ccc(S(=O)(=O)NC(=O)N[C@H]3CC[C@H](C)CC3)cc2)C1=O [glimepiride, Glimepiride] here?
Its value is “none of the medicines that we tested”.

Which “increase of Col IV+ basement membrane” value [1] does the source give for C[C@H](NC(=O)Cc1cc(F)cc(F)c1)C(=O)N[C@@H]1C(=O)N(C)c2ccccc2-c2ccccc21 [Dehydroxy-LY411575] here?
Its value is “prevent the increase of basement membrane (Col IV) under diabetic conditions”.

For C[C@H](NC(=O)[C@@H](O)c1cc(F)cc(F)c1)C(=O)N[C@@H]1C(=O)N(C)c2ccccc2-c2ccccc21 [LY411575], which “increase of Col IV+ basement membrane” value [1] is on record?
The value was “prevent the increase of basement membrane (Col IV) under diabetic conditions”.

c1ccc2c(c1)[I+]c1ccccc1-2 [diphenyleneiodonium, Diphenyleneiodonium] was tested. Which “high glucose/TNFα/IL6-induced thickening” value [1] did it give?
The value was “none of the medicines that we tested”.

B1: D111: non-crosslinked recombinant protein (Notch ligand) used as blocker (protein, UniProt O00548 18-723, looked up)
Delta-like protein 1: QVWSSGVFELKLQEFVNKKGLLGNRNCCRGGAGPPPCACRTFFRVCLKHYQASVSPEPPCTYGSAVTPVLGVDSFSLPDGGGADSAFSNPIRFPFGFTWPGTFSLIIEALHTDSPDDLATENPERLISRLATQRHLTVGEEWSQDLHSSGRTDLKYSYRFVCDEHYYGEGCSVFCRPRDDAFGHFTCGERGEKVCNPGWKGPYCTEPICLPGCDEQHGFCDKPGECKCRVGWQGRYCDECIRYPGCLHGTCQQPWQCNCQEGWGGLFCNQDLNYCTHHKPCKNGATCTNTGQGSYTCSCRPGYTGATCELGIDECDPSPCKNGGSCTDLENSYSCTCPPGFYGKICELSAMTCADGPCFNGGRCSDSPDGGYSCRCPVGYSGFNCEKKIDYCSSSPCSNGAKCVDLGDAYLCRCQAGFSGRHCDDNVDDCASSPCANGGTCRDGVNDFSCTCPPGYTGRNCSAPVSRCEHAPCHNGATCHERGHRYVCECARGYGGPNCQFLLPELPPGPAVVDLTEKLEGQGGPFPWVAVCAGVILVLMLLLGCAAVVVCVRLRLQKHRPPADPCRGETETMNNLANCQREKDISVSIIGATQIKNTNKKADFHGDHSADKNGFKARYPAVDYNLVQDLKGDDTAVRDAHSKRDTKCQPQGSSGEEKGTPTTLRGGEASERKRPDSGCSTSKDTKYQSVYVISEEKDECVIATEV
B1 was tested. Which “diabetic basement membrane thickening (Col IV) on blocking Notch pathway members” value [1] did it give?
The value was “did not impact on the diabetes mediated thickening of the vascular basement membrane”.

Source: patent US20200199541A1, “BLOOD VESSEL ORGANOID, METHODS OF PRODUCING AND USING SAID ORGANOIDS” (IMBA - INSTITUT FÜR MOLEKULARE BIOTECHNOLOGIE GMBH, priority 2017, published 2020)
